From patent publication US20110039721A1, “METHOD FOR PREDICTION ABOUT CARCINOGENICITY OF SUBSTANCE IN RODENT” (Chemicals Evaluation and Research Institute, priority 2007, published 2011)

Columns and labels:
[1] = system: mRNA expressed from the genes (A) to (D) in rat liver; assay: Behavior of genes (mRNA expression level, oligo-DNA microarray) in rat liver after 28-day oral administration; assay type: in vivo; details: mRNA vs vehicle control group
Procedure, shortened: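 Male F344 SPF rats, 5 weeks old, four per group, dosed by oral gavage once daily for 28 days with test chemical or matched-volume solvent. Liver total RNA profiled on oligo-DNA microarray. Change ≥1.5-fold or ≤1/1.5 versus vehicle counted as significant if its direction matched that seen with other carcinogens.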

liver = details: classification of the substance (Cr+/Cr−); cited from earlier work
rodent = details: classification of the substance (C+/C−); cited from earlier work
[2] = classification of the substance (M+/M−); cited from earlier work
[3] = gene group (A), Unigene No. Rn.167075
[4] = gene group (C), Unigene No. Rn.120914

ClC(Cl)C(Cl)(Cl)Cl [TS055, Pentachloroethane]
Behavior of gene caused by administration of chemical substance, Gene No. 4846 ([1]; gene group (A), Unigene No. Rn.144554): − | Behavior of gene caused by administration of chemical substance, Gene No. 2026 [1, 3]: − | Behavior of gene caused by administration of chemical substance, Gene No. 4218 [1, 3]: − | Behavior of gene caused by administration of chemical substance, Gene No. 6182 ([1]; gene group (A), Unigene No. Rn.5834): − | Behavior of gene caused by administration of chemical substance, Gene No. 5600 ([1]; gene group (A), Unigene No. Rn.9836): − | Behavior of gene caused by administration of chemical substance, Gene No. 1494 ([1]; gene group (B), Unigene No. Rn.1430): + | Behavior of gene caused by administration of chemical substance, Gene No. 2045 ([1]; gene group (B), Unigene No. Rn.19329): − | Behavior of gene caused by administration of chemical substance, Gene No. 2203 ([1]; gene group (B), Unigene No. Rn.21240): − | Behavior of gene caused by administration of chemical substance, Gene No. 533 ([1]; gene group (C), Unigene No. Rn.106184): + | Behavior of gene caused by administration of chemical substance, Gene No. 725 ([1]; gene group (C), Unigene No. Rn.108075): − | Behavior of gene caused by administration of chemical substance, Gene No. 1163 ([1]; gene group (C), Unigene No. Rn.11766): + | Behavior of gene caused by administration of chemical substance, Gene No. 4973 ([1]; gene group (C), Unigene No. Rn.118529): + | Behavior of gene caused by administration of chemical substance, Gene No. 4095 ([1]; gene group (C), Unigene No. Rn.119024): + | Behavior of gene caused by administration of chemical substance, Gene No. 1334 [1, 4]: + | Behavior of gene caused by administration of chemical substance, Gene No. 6620 [1, 4]: + | Behavior of gene caused by administration of chemical substance, Gene No. 6303 ([1]; gene group (C), Unigene No. Rn.123063): + | Behavior of gene caused by administration of chemical substance, Gene No. 5878 ([1]; gene group (C), Unigene No. Rn.143213): + | Behavior of gene caused by administration of chemical substance, Gene No. 1131 ([1]; gene group (C), Unigene No. Rn.144946): + | Behavior of gene caused by administration of chemical substance, Gene No. 1562 ([1]; gene group (C), Unigene No. Rn.14744): + | Behavior of gene caused by administration of chemical substance, Gene No. 1741 ([1]; gene group (C), Unigene No. Rn.1647): + | Behavior of gene caused by administration of chemical substance, Gene No. 893 ([1]; gene group (C), Unigene No. Rn.164817): + | Behavior of gene caused by administration of chemical substance, Gene No. 6026 ([1]; gene group (C), Unigene No. Rn.167685): + | Behavior of gene caused by administration of chemical substance, Gene No. 154 ([1]; gene group (C), Unigene No. Rn.185941): + | Behavior of gene caused by administration of chemical substance, Gene No. 1993 ([1]; gene group (C), Unigene No. Rn.18728): + | Behavior of gene caused by administration of chemical substance, Gene No. 813 ([1]; gene group (C), Unigene No. Rn.201760): + | Behavior of gene caused by administration of chemical substance, Gene No. 2494 ([1]; gene group (C), Unigene No. Rn.23969): + | Behavior of gene caused by administration of chemical substance, Gene No. 2546 ([1]; gene group (C), Unigene No. Rn.24561): + | Behavior of gene caused by administration of chemical substance, Gene No. 3776 ([1]; gene group (C), Unigene No. Rn.43232): + | Behavior of gene caused by administration of chemical substance, Gene No. 3929 ([1]; gene group (C), Unigene No. Rn.4620): + | Behavior of gene caused by administration of chemical substance, Gene No. 1119 ([1]; gene group (C), Unigene No. Rn.9757): + | Behavior of gene caused by administration of chemical substance, Gene No. 6742 ([1]; gene group (C), Unigene No. Rn.9779): + | Behavior of gene caused by administration of chemical substance, Gene No. 5634 ([1]; gene group (C), Unigene No. Rn.9862): + | Behavior of gene caused by administration of chemical substance, Gene No. 5726 ([1]; gene group (D), Unigene No. Rn.9939): + | Liver carcinogenicity (liver): Cr− | Carcinogenicity (rodent): C+ | Mutagenicity by Ames test [2]: M−
